This passage reports inhibition results from US11363815B2, “Trifluoroethyl thioether (sulfoxide) substituted benzene compound and use thereof” (SHENYANG UNIVERSITY OF CHEMICAL TECHNOLOGY, priority 2018, dated 2022).

For the assay, the system named is Tetranychus cinnabarinus eggs. The assay can be described thus: Determination of activity of Tetranychus cinnabarinus eggs (greenhouse spray test). The assay is classed as in vivo. The settings on record: 120 h, concentration of the chemical solution 5 mg/L, spray treatment of eggs on marrow bean leaf, examined after 5 days, read-out: hatching inhibition rate for Tetranychus cinnabarinus eggs. On the procedure:
The acaricidal activity in a greenhouse was determined by using the compound of the present invention. The determination method is as follows: According to the solubility of the compound to be tested, the compound was dissolved with acetone or dimethyl sulfoxide, and prepared into 50 ml of solution to be tested in a concentration needed with 0.1% Tween 80 solution, in which the content of acetone or dimethyl sulfoxide comprises not more than […]. A potted marrow bean seedling with two true leaves was taken, one true leaf was removed, then 10 female adult mites of healthy Tetranychus cinnabarinus were inoculated to the leaf, the adult mites were removed after 24 hours, spray treatment was performed after examination of the number of eggs. Every treatment was performed for 3 times. After 5 days, when all the blank control eggs were incubated, the number of the eggs which were not incubated in each treatment was examined to calculate the incubation inhibition rate.

Turning to `Cc1cc(F)c(N2Cc3ccccc3C2=O)cc1SCC(F)(F)F` [compound 1], the inhibition at 5 µg/mL was not below 90%.

Regarding `Cc1cc(F)c(N2Cc3ccccc3C2=O)cc1[S+]([O-])CC(F)(F)F` (centres unmarked) [compound 2], the inhibition at 5 µg/mL was not below 90%.

As usually defined, the inhibition is how much of the control response was suppressed.
